In this assay the test system is rumen fluid. The assay can be described thus: Rumen in vitro (RIV) assay: methane production from incubated rumen fluid. It is filed as cell-based, cattle. The settings on record: for RIV % methane reduction: 60 mL rumen fluid-buffer mixture. How it is done: The compounds of the present invention were initially screened for activity using an in vitro fully automated incubation system for the measurement of total gas production and gas composition (methane and hydrogen). The system used is described in detail in the paper by Muetzel et al. (2014; Animal Feed Science and Technology 196, 1-11). The system in this specification is referred to as the rumen in vitro system or RIV. The RIV system provides a relatively simple tool for determining the rate and production of methane and also whether the rate and production of methane is inhibited or reduced by a particular compound or feed. Rumen in vitro assays use rumen fluid from donor animals (typically either sheep or cattle) which is typically combined with a buffer and then incubated in sealed fermentation vessels at 39° C. for either 24 or 48 h. These assays systems have been well-characterised and used by the scientific community over the last two decades (Rymer et al. 2005). The system that has been used here to characterise the effects of inhibitors on methane production and gas production, and the formation of H2, was described by Muetzel et al. (2014). Rumen in vitro assay systems reflect what can occur in the rumen in vivo, but only short-term, due to their short incubation times (typically not exceeding 48 h) which is limited by its buffering capacity and the fact that it is a closed system. Stock solutions of inhibitors were re-suspended in dimethylformamide (DMF) at concentrations 1000-fold higher than the highest used for the assays. Any further dilutions were also prepared using DMF. The total amount of inhibitor solution added to the rumen fluid-buffer mixture (60 mL) was 60 μl. Incubations used 60 ml of medium containing 12 ml of filtered rumen fluid and 48 ml of buffer in serum bottles for 24-48 h, essentially as described by Muetzel et al. (2014). Two fistulated cattle were used as donor animals for rumen fluid and treatments were incubated in duplicate bottles. Sets of duplicate incubation vials that contained ryegrass (with rumen fluid-buffer mixture), and ryegrass with 30 μM bromoethanesulfonate (BES) were also incubated as negative and positive controls, respectively. One experiment consists of 2 replicates of an inhibitor at any one concentration run at the same time, and a run can contain up to 32 bottle, including positive (30 µM BES) and negative (no inhibitor added) controls. Compound 1, for example, was tested using the 60 mL rumen in vitro assay system at 30 μM, 10 μM, 2 μM and 1 μM final concentrations and compared to a positive control with 30 μM BES. […] Compound 3 was very active in the RIV and only the lower concentrations of 2 μM and 1 μM were measured.

The source of these data is patent publication US20250129081A1, “METHANOGEN INHIBITORS” (PASTORAL GREENHOUSE GAS RESEARCH LIMITED, priority 2021, published 2025).

By inhibition is commonly meant the percentage by which the read-out fell short of the control.

Consider `O=c1[nH]c(=O)c2cc3c(=O)n(CCOc4no[n+]([O-])c4S(=O)(=O)c4ccccc4)c(=O)c3cc12` [Compound 1, 3-(phenylsulfonyl)-4-(2-(1,3,5,7-tetraoxo-3,5,6,7-tetrahydropyrrolo[3,4-f]isoindol-2(1H)-yl)ethoxy)-1,2,5-oxadiazole 2-oxide], for which the “RIV % methane reduction” value reads like this: (1 μM compound) 8.9%; (2 μM compound) 23.3%; (10 μM compound) 67.8%; (30 μM compound) 87.1%. Where the note is “Bos taurus, 2 μM, at 18 h, 60 mL rumen in vitro assay system, read-out: inhibition level (methane)”, the inhibition at 2 µM is about 23.3%. In addition, the inhibition at 30 µM (Bos taurus, 30 μM, at 18 h, 60 mL rumen in vitro assay system, read-out: inhibition level (methane)) is about 87.1%.

Regarding `O=c1c2cc3c(=O)n(CO[N+](=O)[O-])c(=O)c3cc2c(=O)n1CCOc1no[n+]([O-])c1S(=O)(=O)c1ccccc1` [Compound 2, 4-(2-(6-((nitrooxy)methyl)-1,3,5,7-tetraoxo-3,5,6,7-tetrahydropyrrolo[3,4-f]isoindol-2(1H)-yl)ethoxy)-3-(phenylsulfonyl)-1,2,5-oxadiazole 2-oxide], the “RIV % methane reduction” value was 7.2% (1 μM compound), 30.6% (2 μM compound), 56.1% (10 μM compound) and 85.9% (30 μM compound).

With `Cn1c(=O)c2cc3c(=O)n(CCOc4no[n+]([O-])c4S(=O)(=O)c4ccccc4)c(=O)c3cc2c1=O` [Compound 3], the “RIV % methane reduction” value (1 μM compound) was determined as 49.0% and the “RIV % methane reduction” value (2 μM compound) turned out to be 80.4%. The “activity in the RIV (in words)” value (only 2 μM and 1 μM measured) is “very active”.
